Data on 12 molecules can be found in ChEMBL document CHEMBL3045728, “Synthesis, physico-chemical properties, and antimicrobial evaluation of a new series of iron(III) hexadentate chelators” (Med Chem Res, 2013).

≈ marks a conversion by molar mass, not a printed value.

Series [1] is described as follows: Iron chelating activity of the compound assessed as stability constant of Fe3+-compound complex. The class given is physicochemical.
Series [2] can be described thus: Iron chelating activity of the compound assessed as stability constant of Fe3+-compound complex after 5 min by spectrophotometric titration analysis. It counts as physicochemical.
A further series deals with Bacillus subtilis. As to the kind of experiment: Antimicrobial activity against Bacillus subtilis assessed as growth inhibition incubated for 2 hr measured after 24 hr by turbidity based assay. It counts as functional.
In a further series the test system is Pseudomonas aeruginosa. Put plainly: Antimicrobial activity against Pseudomonas aeruginosa assessed as growth inhibition incubated for 2 hr measured after 24 hr by turbidity based assay. The class given is functional.
For the next series, the system named is Staphylococcus aureus. As to the kind of experiment: Antimicrobial activity against Staphylococcus aureus assessed as growth inhibition incubated for 2 hr measured after 24 hr by turbidity based assay. The class given is functional.
The next series relates to Bacillus cereus. Put plainly: Antimicrobial activity against Bacillus cereus assessed as growth inhibition incubated for 2 hr measured after 24 hr by turbidity based assay. The class given is functional.
A further series concerns Escherichia coli. Put plainly: Antimicrobial activity against Escherichia coli assessed as growth inhibition incubated for 2 hr measured after 24 hr by turbidity based assay. The class given is functional.

Take `O=C(O)C(NCCNC(C(=O)O)c1ccccc1O)c1ccccc1O` (centres undefined): the “log K” value in series [1] came to 34.
As to `O=C(NCCN(CCNC(=O)c1[nH]ccc(=O)c1O)CCNC(=O)c1[nH]ccc(=O)c1O)c1[nH]ccc(=O)c1O`, the “log K” value in series [2] worked out at 30.7. Further, the minimal inhibitory concentration (MIC) (usually the lowest concentration found to suppress growth) in the series on Bacillus subtilis was 40 µg/mL (≈ 71.7 µM); with Pseudomonas aeruginosa, 24 µg/mL (≈ 43 µM); in the series on Staphylococcus aureus, 40 µg/mL (≈ 71.7 µM); in the series with Bacillus cereus it was 40 µg/mL (≈ 71.7 µM); with Escherichia coli, 80 µg/mL (≈ 143 µM).
On to `O=C(NCCN(CCNC(=O)c1c(O)c(=O)ccn1CCOCCO)CCNC(=O)c1c(O)c(=O)ccn1CCOCCO)c1c(O)c(=O)ccn1CCOCCO`, for which the “log K” value in series [2] was found to be 32. Moreover, the MIC with Bacillus subtilis, with Pseudomonas aeruginosa, in the series on Staphylococcus aureus, in the series with Bacillus cereus and with Escherichia coli was 40 µg/mL (≈ 48.7 µM) throughout.
With `COCCn1ccc(=O)c(O)c1C(=O)NCCN(CCNC(=O)c1c(O)c(=O)ccn1CCOC)CCNC(=O)c1c(O)c(=O)ccn1CCOC`, the “log K” value in series [2] worked out at 32.3. The MIC amounted to 40 µg/mL (≈ 54.7 µM) in the series on Bacillus subtilis; 16 µg/mL (≈ 21.9 µM) in the series on Pseudomonas aeruginosa; 80 µg/mL (≈ 109 µM) in the series on Staphylococcus aureus; 80 µg/mL (≈ 109 µM) with Bacillus cereus; 16 µg/mL (≈ 21.9 µM) with Escherichia coli.
As for `O=C(NCCN(CCNC(=O)c1c(O)c(=O)ccn1CCO)CCNC(=O)c1c(O)c(=O)ccn1CCO)c1c(O)c(=O)ccn1CCO`, the MIC in the series with Bacillus subtilis is 40 µg/mL (≈ 58 µM); with Pseudomonas aeruginosa it was 40 µg/mL (≈ 58 µM); in the series on Staphylococcus aureus, 80 µg/mL (≈ 116 µM); in the series with Bacillus cereus, 40 µg/mL (≈ 58 µM); in the series on Escherichia coli, 40 µg/mL (≈ 58 µM).
Take `CCCCCCn1ccc(=O)c(O)c1C(=O)NCCN(CCNC(=O)c1c(O)c(=O)ccn1CCCCCC)CCNC(=O)c1c(O)c(=O)ccn1CCCCCC`: the minimal inhibitory concentration (MIC) in the series on Bacillus subtilis turned out to be 40 µg/mL (≈ 49.4 µM); in the series with Pseudomonas aeruginosa, 40 µg/mL (≈ 49.4 µM); with Staphylococcus aureus it was 40 µg/mL (≈ 49.4 µM); with Bacillus cereus it was 40 µg/mL (≈ 49.4 µM); in the series with Escherichia coli it was 80 µg/mL (≈ 98.8 µM).
On to `CCCCn1ccc(=O)c(O)c1C(=O)NCCN(CCNC(=O)c1c(O)c(=O)ccn1CCCC)CCNC(=O)c1c(O)c(=O)ccn1CCCC`, for which the MIC in the series with Bacillus subtilis came to 80 µg/mL (≈ 110 µM); with Pseudomonas aeruginosa, 40 µg/mL (≈ 55.1 µM); in the series on Staphylococcus aureus it was 80 µg/mL (≈ 110 µM); in the series on Bacillus cereus, 80 µg/mL (≈ 110 µM); in the series with Escherichia coli it was 40 µg/mL (≈ 55.1 µM).
For the molecule `CCn1ccc(=O)c(O)c1C(=O)NCCN(CCNC(=O)c1c(O)c(=O)ccn1CC)CCNC(=O)c1c(O)c(=O)ccn1CC`, the “log K” value in series [2] worked out at 32.6. Besides, the MIC with Bacillus subtilis was found to be 40 µg/mL (≈ 62.3 µM); in the series with Pseudomonas aeruginosa, 16 µg/mL (≈ 24.9 µM); in the series with Staphylococcus aureus, 40 µg/mL (≈ 62.3 µM); in the series on Bacillus cereus it was 40 µg/mL (≈ 62.3 µM); in the series with Escherichia coli it was 24 µg/mL (≈ 37.4 µM).
As for `Cn1ccc(=O)c(O)c1C(=O)NCCN(CCNC(=O)c1c(O)c(=O)ccn1C)CCNC(=O)c1c(O)c(=O)ccn1C`, the “log K” value in series [2] is 32.1. Besides, the MIC in the series with Bacillus subtilis came to 40 µg/mL (≈ 66.7 µM); with Pseudomonas aeruginosa, 24 µg/mL (≈ 40 µM); in the series on Staphylococcus aureus, 40 µg/mL (≈ 66.7 µM); with Bacillus cereus it was 40 µg/mL (≈ 66.7 µM); with Escherichia coli, 24 µg/mL (≈ 40 µM).
`O=C(O)CN(CCN(CC(=O)O)Cc1ccccc1O)Cc1ccccc1O`: the “log K” value in series [1] stood at 40.
The same measure, in the same setting: then `CC(=O)N(O)CCCCCNC(=O)CCC(=O)N(O)CCCCCNC(=O)CCC(=O)N(O)CCCCCN` [DEFEROXAMINE], with 30.4.
`O=C(O)CN(CCN(CC(=O)O)CC(=O)O)CCN(CC(=O)O)CC(=O)O` [PENTETIC ACID]: the MIC in the series with Bacillus subtilis was determined as 80 µg/mL (≈ 203 µM); in the series with Pseudomonas aeruginosa it was 80 µg/mL (≈ 203 µM); with Staphylococcus aureus, 40 µg/mL (≈ 102 µM); in the series with Bacillus cereus it was 80 µg/mL (≈ 203 µM); with Escherichia coli it was 80 µg/mL (≈ 203 µM). Moreover, the “log K” value in series [1] was determined as 28.6.
